Measured values from US12398178B2, “Collections of peptides, peptide agents, and methods of use thereof” (Parabilis Medicines, Inc., priority 2018, dated 2025).
Starred links: 1 amine or outer side, 2 acyl side, 3 side chain; linkers in the order of their positions; H or OH if unused. Positions of bridges follow the written chain, without caps; N, C: chain ends. Residues, ends and D or L forms follow the SMILES beside them. Phenylene(1,4-NHCOCH2)2 = O=C(C[*:1])Nc1ccc(NC(=O)C[*:2])cc1; X4 = O=C(C[*:1])O[C@H]1CC[C@@H](OC(=O)C[*:2])CC1; X9 = O=C(C[*:1])O[C@@H]1CCC[C@H](OC(=O)C[*:2])C1; X8 = COc1cc(NC(=O)C[*:2])c(OC)cc1NC(=O)C[*:1]; X7 = O=C(C[*:1])Nc1cc(F)c(NC(=O)C[*:2])cc1F

Test: Measurement of LogD (CHI logD by HPLC)
Assay type: physicochemical
Conditions: CHI log D, 50 mM ammonium acetate pH 7.4 / acetonitrile gradient, C-18 column, 25° C.
Method: Measurement of LogD: LogD values were measured on a Agilent 1260 HPLC with UV detector (254, 220 nm), using a Gemini NX C-18 50×3 mm column (Phenomenex) with a 6-minute 0-100% mobile phase gradient of A) 50 mM ammonium acetate pH 7.4 and B) Acetonitrile at 25° C. with a flow rate of 1 mL/min and injection volume of 3-5 uL.

Structure (SMILES) | chromatographic logD
CC[C@H](C)[C@@H]1NC(=O)[C@H](CC(C)C)NC(=O)[C@H](C)NC(=O)[C@H](C)NC(=O)[C@H](Cc2c[nH]cn2)NC(=O)[C@H](CCC(=O)O)NC(=O)[C@@H](NC(=O)[C@H](Cc2c[nH]cn2)NC(=O)[C@H](Cc2c[nH]c3ccccc23)NC(=O)[C@H](CCC(N)=O)NC(=O)[C@H](C)NC(=O)[C@@H]2CCCN2C(=O)[C@H](CC(=O)O)NC(=O)[C@H](C)N)CSCC(=O)Nc2ccc(cc2)NC(=O)CSC[C@@H](C(=O)N[C@@H](CCC(=O)O)C(=O)N[C@@H](CC(C)C)C(=O)N[C@@H](CC(=O)O)C(N)=O)NC1=O [Compound 10] (H-ADPAQWHCEHAALICELD-NH2; linker 8-15 via Phenylene(1,4-NHCOCH2)2; N-terminus and C-terminus assumed) | 0.39
CC[C@H](C)[C@@H]1NC(=O)[C@H](CC(C)C)NC(=O)[C@H](C)NC(=O)[C@H](C)NC(=O)[C@H](Cc2c[nH]cn2)NC(=O)[C@H](CCC(=O)O)NC(=O)[C@@H](NC(=O)[C@H](C)NC(=O)[C@H](Cc2c[nH]c3ccccc23)NC(=O)[C@H](CC(C)C)NC(=O)[C@H](C)NC(=O)[C@@H]2CCCN2C(=O)[C@H](CC(=O)O)NC(=O)[C@H](C)N)CSCC(=O)Nc2cc(F)c(cc2F)NC(=O)CSC[C@@H](C(=O)N[C@@H](CCC(=O)O)C(=O)N[C@H](C(=O)N[C@@H](CCC(N)=O)C(N)=O)[C@@H](C)O)NC1=O [Compound 41] (H-ADPALWACEHAALICETQ-NH2; linker 8-15 via X7; N-terminus and C-terminus assumed) | 0.73
CC[C@H](C)[C@H](NC(=O)[C@H](CCC(=O)O)NC(=O)[C@@H]1CSCC(=O)Nc2ccc(cc2)NC(=O)CSC[C@H](NC(=O)[C@@H]2CCCN2C(=O)[C@H](Cc2c[nH]c3ccccc23)NC(=O)[C@H](CCC(N)=O)NC(=O)[C@H](C)NC(=O)[C@@H]2CCCN2C(=O)[C@H](CC(=O)O)NC(=O)[C@H](C)N)C(=O)N[C@@H](CCC(=O)O)C(=O)N[C@@H](Cc2c[nH]cn2)C(=O)N[C@@H](C)C(=O)N[C@@H](C)C(=O)N[C@@H](CC(C)C)C(=O)N[C@@H](CC(C)C)C(=O)N1)C(=O)N[C@@H](CCC(=O)O)C(N)=O [Compound 14] (H-ADPAQWPCEHAALLCEIE-NH2; linker 8-15 via Phenylene(1,4-NHCOCH2)2; N-terminus and C-terminus assumed) | 0.47
COc1cc2c(OC)cc1NC(=O)CSC[C@@H](C(=O)N[C@@H](CCC(=O)O)C(=O)N[C@@H](CC(C)C)C(=O)N[C@H](C(N)=O)C(C)C)NC(=O)[C@H](Cc1c[nH]cn1)NC(=O)[C@H](CC(C)C)NC(=O)[C@H](C)NC(=O)[C@H](C)NC(=O)[C@H](Cc1c[nH]c3ccccc13)NC(=O)[C@H](CCC(=O)O)NC(=O)[C@@H](NC(=O)[C@H](CCCNC(=N)N)NC(=O)[C@H](Cc1c[nH]cn1)NC(=O)[C@@H](NC(=O)[C@H](C)NC(=O)[C@@H]1CCCN1C(=O)[C@H](CC(=O)O)NC(=O)[C@H](C)N)[C@@H](C)O)CSCC(=O)N2 [Compound 34] | 0.63
CC[C@H](C)[C@@H]1NC(=O)[C@H](CC(C)C)NC(=O)[C@H](C)NC(=O)[C@H](C)NC(=O)[C@H](Cc2c[nH]cn2)NC(=O)[C@H](CCC(=O)O)NC(=O)[C@@H](NC(=O)[C@H](CC(C)C)NC(=O)[C@H](Cc2c[nH]c3ccccc23)NC(=O)[C@H](Cc2ccc(O)cc2)NC(=O)[C@H](C)NC(=O)[C@@H]2CCCN2C(=O)[C@H](CC(=O)O)NC(=O)[C@H](C)N)CSCC(=O)Nc2ccc(cc2)NC(=O)CSC[C@@H](C(=O)N[C@@H](CCC(=O)O)C(=O)N[C@H](C(=O)N[C@@H](CCC(=O)O)C(N)=O)C(C)C)NC1=O [Compound 13] (H-ADPAYWLCEHAALICEVE-NH2; linker 8-15 via Phenylene(1,4-NHCOCH2)2; N-terminus and C-terminus assumed) | 0.8
CC[C@H](C)[C@@H]1NC(=O)[C@H](CC(C)C)NC(=O)[C@H](C)NC(=O)[C@H](C)NC(=O)[C@H](Cc2c[nH]cn2)NC(=O)[C@H](CCC(=O)O)NC(=O)[C@@H](NC(=O)[C@H](C)NC(=O)[C@H](Cc2c[nH]c3ccccc23)NC(=O)[C@H](CC(C)C)NC(=O)[C@H](C)NC(=O)[C@@H]2CCCN2C(=O)[C@H](CC(=O)O)NC(=O)[C@H](C)N)CSCC(=O)Nc2ccc(cc2)NC(=O)CSC[C@@H](C(=O)N[C@@H](CCC(=O)O)C(=O)N[C@H](C(=O)N[C@@H](CCC(N)=O)C(N)=O)[C@@H](C)O)NC1=O [Compound 2] (H-ADPALWACEHAALICETQ-NH2; linker 8-15 via Phenylene(1,4-NHCOCH2)2; N-terminus and C-terminus assumed) | 0.62
CC[C@H](C)[C@@H]1NC(=O)[C@H](CC(C)C)NC(=O)[C@H](C)NC(=O)[C@H](C)NC(=O)[C@H](Cc2c[nH]cn2)NC(=O)[C@H](CCC(=O)O)NC(=O)[C@@H](NC(=O)[C@H](C)NC(=O)[C@H](Cc2c[nH]c3ccccc23)NC(=O)[C@H](CC(C)C)NC(=O)[C@H](C)NC(=O)[C@@H]2CCCN2C(=O)[C@H](CC(=O)O)NC(=O)[C@H](C)N)CSCC(=O)Nc2cc(OC)c(cc2OC)NC(=O)CSC[C@@H](C(=O)N[C@@H](CCC(=O)O)C(=O)N[C@H](C(=O)N[C@@H](CCC(N)=O)C(N)=O)[C@@H](C)O)NC1=O [Compound 43] (H-ADPALWACEHAALICETQ-NH2; linker 8-15 via X8; N-terminus and C-terminus assumed) | 0.75
CC(C)C[C@@H]1NC(=O)[C@H](C)NC(=O)[C@H](C)NC(=O)[C@H](Cc2c[nH]c3ccccc23)NC(=O)[C@H](CCC(=O)O)NC(=O)[C@@H](NC(=O)[C@H](CCCNC(=N)N)NC(=O)[C@H](Cc2c[nH]cn2)NC(=O)[C@@H](NC(=O)[C@H](C)NC(=O)[C@@H]2CCCN2C(=O)[C@H](CC(=O)O)NC(=O)[C@H](C)N)[C@@H](C)O)CSCC(=O)Nc2cc(Cl)c(cc2Cl)NC(=O)CSC[C@@H](C(=O)N[C@@H](CCC(=O)O)C(=O)N[C@@H](CC(C)C)C(=O)N[C@H](C(N)=O)C(C)C)NC(=O)[C@H](Cc2c[nH]cn2)NC1=O [Compound 33] | 0.68
CC[C@H](C)[C@@H]1NC(=O)[C@H](CC(C)C)NC(=O)[C@H](C)NC(=O)[C@H](C)NC(=O)[C@H](Cc2c[nH]cn2)NC(=O)[C@H](CCC(=O)O)NC(=O)[C@@H](NC(=O)[C@H](C)NC(=O)[C@H](Cc2c[nH]c3ccccc23)NC(=O)[C@H](CC(C)C)NC(=O)[C@H](C)NC(=O)[C@@H]2CCCN2C(=O)[C@H](CC(=O)O)NC(=O)[C@H](C)N)CSCC(=O)O[C@@H]2CCC[C@@H](C2)OC(=O)CSC[C@@H](C(=O)N[C@@H](CCC(=O)O)C(=O)N[C@H](C(=O)N[C@@H](CCC(N)=O)C(N)=O)[C@@H](C)O)NC1=O [Compound 46] (H-ADPALWACEHAALICETQ-NH2; linker 8-15 via X9; N-terminus and C-terminus assumed) | 0.94
CC[C@H](C)[C@@H]1NC(=O)[C@H](CC(C)C)NC(=O)[C@H](C)NC(=O)[C@H](C)NC(=O)[C@H](Cc2c[nH]cn2)NC(=O)[C@H](CCC(=O)O)NC(=O)[C@@H](NC(=O)[C@H](C)NC(=O)[C@H](Cc2c[nH]c3ccccc23)NC(=O)[C@H](CC(C)C)NC(=O)[C@H](C)NC(=O)[C@@H]2CCCN2C(=O)[C@H](CC(=O)O)NC(=O)[C@H](C)N)CSCC(=O)O[C@H]2CC[C@H](CC2)OC(=O)CSC[C@@H](C(=O)N[C@@H](CCC(=O)O)C(=O)N[C@H](C(=O)N[C@@H](CCC(N)=O)C(N)=O)[C@@H](C)O)NC1=O [Compound 45] (H-ADPALWACEHAALICETQ-NH2; linker 8-15 via X4; N-terminus and C-terminus assumed) | 1.03
